# Laboratory results: PubChem BioAssay (NCI)
#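 Five concentrations, 48 hours, 96-well plates. The concentration for full growth arrest is given as TGI.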
# What was measured:
# Experiment in all cases: NCI tumour cell line growth inhibition, 48 h
# MCF7 breast = test system: MCF7 breast
# CAKI-1 renal = test system: CAKI-1 renal
# SW-620 colon = test system: SW-620 colon
# SK-MEL-28 melanoma = test system: SK-MEL-28 melanoma
# UACC-257 melanoma = test system: UACC-257 melanoma
# MOLT-4 leukemia = test system: MOLT-4 leukemia
# LOX IMVI melanoma = test system: LOX IMVI melanoma
# UACC-62 melanoma = test system: UACC-62 melanoma
# SNB-75 CNS = test system: SNB-75 CNS
# MDA-N = test system: MDA-N
# IGROV1 ovarian = test system: IGROV1 ovarian
# SK-MEL-5 melanoma = test system: SK-MEL-5 melanoma
# SF-268 CNS = test system: SF-268 CNS
# RXF 393 renal = test system: RXF 393 renal
# 786-0 renal = test system: 786-0 renal
# EKVX NSCLC = test system: EKVX NSCLC
# CCRF-CEM leukemia = test system: CCRF-CEM leukemia
# OVCAR-4 ovarian = test system: OVCAR-4 ovarian
# OVCAR-5 ovarian = test system: OVCAR-5 ovarian
# SNB-19 CNS = test system: SNB-19 CNS
# NCI/ADR-RES ovarian = test system: NCI/ADR-RES ovarian
# A549 NSCLC = test system: A549 NSCLC
# NCI-H460 lung = test system: NCI-H460 lung
# M14 melanoma = test system: M14 melanoma
# HCC-2998 colon = test system: HCC-2998 colon
# MDA-MB-435 = test system: MDA-MB-435
# K-562 leukemia = test system: K-562 leukemia
# HOP-92 NSCLC = test system: HOP-92 NSCLC
# COLO 205 colon = test system: COLO 205 colon
# TK-10 renal = test system: TK-10 renal
# U251 CNS = test system: U251 CNS
# SK-OV-3 ovarian = test system: SK-OV-3 ovarian
# HOP-62 NSCLC = test system: HOP-62 NSCLC
# OVCAR-8 ovarian = test system: OVCAR-8 ovarian
# BT-549 breast = test system: BT-549 breast
# SN12C renal = test system: SN12C renal
# SK-MEL-2 melanoma = test system: SK-MEL-2 melanoma
# KM12 colon = test system: KM12 colon
# A498 renal = test system: A498 renal
# HCT-116 colon = test system: HCT-116 colon
# MDA-MB-231 breast = test system: MDA-MB-231 breast
# ACHN renal = test system: ACHN renal
# SF-539 CNS = test system: SF-539 CNS
# PC-3 prostate = test system: PC-3 prostate
# HCT-15 colon = test system: HCT-15 colon
# NCI-H226 lung = test system: NCI-H226 lung
# SF-295 CNS = test system: SF-295 CNS
# MALME-3M melanoma = test system: MALME-3M melanoma
# HT29 colon = test system: HT29 colon
# NCI-H522 lung = test system: NCI-H522 lung
# OVCAR-3 ovarian = test system: OVCAR-3 ovarian
# DU-145 prostate = test system: DU-145 prostate
# SR leukemia = test system: SR leukemia
# T-47D breast = test system: T-47D breast
# HL-60(TB) leukemia = test system: HL-60(TB) leukemia
# UO-31 renal = test system: UO-31 renal
# NCI-H23 lung = test system: NCI-H23 lung
# HS 578T breast = test system: HS 578T breast
# RPMI-8226 leukemia = test system: RPMI-8226 leukemia
structure (smiles),measurement,setting,value
Cc1ccc(-c2c(C#N)c(-c3ccc(Cl)cc3)c(C#N)c(=O)n2NS(=O)(=O)c2ccc(C)cc2)cc1,TGI,MCF7 breast,36.5 µM
same,TGI,CAKI-1 renal,> 100 µM
same,TGI,SW-620 colon,> 100 µM
same,TGI,SK-MEL-28 melanoma,> 100 µM
same,TGI,UACC-257 melanoma,> 100 µM
same,TGI,MOLT-4 leukemia,40.6 µM
same,TGI,LOX IMVI melanoma,58 µM
same,TGI,UACC-62 melanoma,45 µM
same,TGI,SNB-75 CNS,> 100 µM
same,TGI,MDA-N,> 100 µM
same,TGI,IGROV1 ovarian,> 100 µM
same,TGI,SK-MEL-5 melanoma,38.9 µM
same,TGI,SF-268 CNS,> 100 µM
same,TGI,RXF 393 renal,65.7 µM
same,TGI,786-0 renal,> 100 µM
same,TGI,EKVX NSCLC,> 100 µM
same,TGI,CCRF-CEM leukemia,51.8 µM
same,TGI,OVCAR-4 ovarian,> 100 µM
same,TGI,OVCAR-5 ovarian,> 100 µM
same,TGI,SNB-19 CNS,> 100 µM
same,TGI,NCI/ADR-RES ovarian,49.6 µM
same,TGI,A549 NSCLC,82.3 µM
same,TGI,NCI-H460 lung,> 100 µM
same,TGI,M14 melanoma,60.2 µM
same,TGI,HCC-2998 colon,74.9 µM
same,TGI,MDA-MB-435,> 100 µM
same,TGI,K-562 leukemia,> 100 µM
same,TGI,HOP-92 NSCLC,> 100 µM
same,TGI,COLO 205 colon,> 100 µM
same,TGI,TK-10 renal,> 100 µM
same,TGI,U251 CNS,> 100 µM
same,TGI,SK-OV-3 ovarian,89.2 µM
same,TGI,HOP-62 NSCLC,> 100 µM
same,TGI,OVCAR-8 ovarian,> 100 µM
same,TGI,BT-549 breast,> 100 µM
same,TGI,SN12C renal,> 100 µM
same,TGI,SK-MEL-2 melanoma,40.4 µM
same,TGI,KM12 colon,80.6 µM
same,TGI,A498 renal,86.3 µM
same,TGI,HCT-116 colon,50.6 µM
same,TGI,MDA-MB-231 breast,> 100 µM
same,TGI,ACHN renal,> 100 µM
same,TGI,SF-539 CNS,50.1 µM
same,TGI,PC-3 prostate,45 µM
same,TGI,HCT-15 colon,> 100 µM
same,TGI,NCI-H226 lung,> 100 µM
same,TGI,SF-295 CNS,> 100 µM
same,TGI,MALME-3M melanoma,> 100 µM
same,TGI,HT29 colon,> 100 µM
same,TGI,NCI-H522 lung,71.9 µM
NC(Cc1ccccc1)C(=O)N[C@H]1c2ccsc2/C(=N/O)[C@H]1O (stereo partly specified),TGI,MCF7 breast,> 100 µM
same,TGI,CAKI-1 renal,> 100 µM
same,TGI,SW-620 colon,> 100 µM
same,TGI,OVCAR-3 ovarian,> 100 µM
same,TGI,SK-MEL-28 melanoma,> 100 µM
same,TGI,UACC-257 melanoma,> 100 µM
same,TGI,LOX IMVI melanoma,> 100 µM
same,TGI,UACC-62 melanoma,> 100 µM
same,TGI,MDA-N,> 100 µM
same,TGI,IGROV1 ovarian,> 100 µM
same,TGI,SK-MEL-5 melanoma,> 100 µM
same,TGI,DU-145 prostate,> 100 µM
same,TGI,RXF 393 renal,> 100 µM
same,TGI,EKVX NSCLC,> 100 µM
same,TGI,CCRF-CEM leukemia,> 100 µM
same,TGI,OVCAR-4 ovarian,> 100 µM
same,TGI,OVCAR-5 ovarian,> 100 µM
same,TGI,NCI/ADR-RES ovarian,> 100 µM
same,TGI,A549 NSCLC,> 100 µM
same,TGI,NCI-H460 lung,> 100 µM
same,TGI,M14 melanoma,> 100 µM
same,TGI,HCC-2998 colon,> 100 µM
same,TGI,MDA-MB-435,> 100 µM
same,TGI,K-562 leukemia,> 100 µM
same,TGI,HOP-92 NSCLC,> 100 µM
same,TGI,COLO 205 colon,> 100 µM
same,TGI,TK-10 renal,> 100 µM
same,TGI,U251 CNS,> 100 µM
same,TGI,SK-OV-3 ovarian,> 100 µM
same,TGI,HOP-62 NSCLC,> 100 µM
same,TGI,OVCAR-8 ovarian,> 100 µM
same,TGI,BT-549 breast,> 100 µM
same,TGI,SN12C renal,> 100 µM
same,TGI,SK-MEL-2 melanoma,> 100 µM
same,TGI,SR leukemia,> 100 µM
same,TGI,T-47D breast,> 100 µM
same,TGI,A498 renal,> 100 µM
same,TGI,HCT-116 colon,> 100 µM
same,TGI,MDA-MB-231 breast,> 100 µM
same,TGI,HL-60(TB) leukemia,> 100 µM
same,TGI,SF-539 CNS,> 100 µM
same,TGI,UO-31 renal,> 100 µM
same,TGI,PC-3 prostate,> 100 µM
same,TGI,NCI-H23 lung,> 100 µM
same,TGI,HCT-15 colon,> 100 µM
same,TGI,NCI-H226 lung,> 100 µM
same,TGI,SF-295 CNS,> 100 µM
same,TGI,MALME-3M melanoma,> 100 µM
same,TGI,HT29 colon,> 100 µM
Cc1c(S(=O)(=O)/N=C(\NO)Nc2ccc(Cl)c(Cl)c2)sc2ccc(Cl)cc12,TGI,MCF7 breast,86.8 µM
same,TGI,CAKI-1 renal,38.2 µM
same,TGI,SW-620 colon,> 100 µM
same,TGI,OVCAR-3 ovarian,31.1 µM
same,TGI,SK-MEL-28 melanoma,42.5 µM
same,TGI,UACC-257 melanoma,37.6 µM
same,TGI,MOLT-4 leukemia,> 100 µM
same,TGI,LOX IMVI melanoma,43.3 µM
same,TGI,UACC-62 melanoma,37.2 µM
same,TGI,MDA-N,34.8 µM
same,TGI,IGROV1 ovarian,34.5 µM
same,TGI,SK-MEL-5 melanoma,31.5 µM
same,TGI,SF-268 CNS,58.8 µM
same,TGI,DU-145 prostate,37.1 µM
same,TGI,RXF 393 renal,34 µM
same,TGI,786-0 renal,39.6 µM
same,TGI,EKVX NSCLC,27.4 µM
same,TGI,CCRF-CEM leukemia,> 100 µM
same,TGI,OVCAR-4 ovarian,32.3 µM
same,TGI,OVCAR-5 ovarian,38.2 µM
same,TGI,SNB-19 CNS,45.1 µM
same,TGI,NCI/ADR-RES ovarian,41.7 µM
same,TGI,A549 NSCLC,68.8 µM
same,TGI,M14 melanoma,44.1 µM
same,TGI,HCC-2998 colon,44.6 µM
same,TGI,MDA-MB-435,37.3 µM
same,TGI,K-562 leukemia,71.4 µM
same,TGI,HOP-92 NSCLC,43.8 µM
same,TGI,COLO 205 colon,35.7 µM
same,TGI,TK-10 renal,34.4 µM
same,TGI,U251 CNS,49.9 µM
same,TGI,HOP-62 NSCLC,42.3 µM
same,TGI,OVCAR-8 ovarian,46.6 µM
same,TGI,HS 578T breast,80.9 µM
same,TGI,BT-549 breast,34 µM
same,TGI,SN12C renal,35.8 µM
same,TGI,SK-MEL-2 melanoma,38.6 µM
same,TGI,KM12 colon,38.6 µM
same,TGI,T-47D breast,36.7 µM
same,TGI,A498 renal,38.2 µM
same,TGI,HCT-116 colon,37 µM
same,TGI,MDA-MB-231 breast,55.3 µM
same,TGI,HL-60(TB) leukemia,77.3 µM
same,TGI,ACHN renal,25.8 µM
same,TGI,SF-539 CNS,45.1 µM
same,TGI,UO-31 renal,37.8 µM
same,TGI,PC-3 prostate,36.7 µM
same,TGI,NCI-H23 lung,36.6 µM
same,TGI,HCT-15 colon,35.7 µM
same,TGI,NCI-H226 lung,43.8 µM
same,TGI,SF-295 CNS,33.6 µM
same,TGI,MALME-3M melanoma,42.6 µM
same,TGI,RPMI-8226 leukemia,> 100 µM
same,TGI,HT29 colon,29.3 µM
same,TGI,NCI-H522 lung,41.3 µM
Cc1nc(-c2cc3cc([N+](=O)[O-])ccc3oc2=O)cs1,TGI,MCF7 breast,> 100 µM
same,TGI,CAKI-1 renal,> 100 µM
same,TGI,SW-620 colon,> 100 µM
same,TGI,SK-MEL-28 melanoma,> 100 µM
same,TGI,UACC-257 melanoma,> 100 µM
same,TGI,MOLT-4 leukemia,> 100 µM
same,TGI,LOX IMVI melanoma,> 100 µM
same,TGI,UACC-62 melanoma,> 100 µM
same,TGI,SNB-75 CNS,94.8 µM
same,TGI,MDA-N,> 100 µM
same,TGI,IGROV1 ovarian,> 100 µM
same,TGI,SK-MEL-5 melanoma,> 100 µM
same,TGI,SF-268 CNS,> 100 µM
same,TGI,DU-145 prostate,> 100 µM
same,TGI,RXF 393 renal,> 100 µM
same,TGI,786-0 renal,> 100 µM
same,TGI,EKVX NSCLC,> 100 µM
same,TGI,CCRF-CEM leukemia,> 100 µM
same,TGI,OVCAR-4 ovarian,> 100 µM
same,TGI,OVCAR-5 ovarian,> 100 µM
same,TGI,SNB-19 CNS,> 100 µM
same,TGI,A549 NSCLC,> 100 µM
same,TGI,NCI-H460 lung,> 100 µM
same,TGI,M14 melanoma,> 100 µM
same,TGI,HCC-2998 colon,> 100 µM
same,TGI,MDA-MB-435,> 100 µM
same,TGI,K-562 leukemia,> 100 µM
same,TGI,HOP-92 NSCLC,> 100 µM
same,TGI,COLO 205 colon,> 100 µM
same,TGI,TK-10 renal,> 100 µM
same,TGI,U251 CNS,> 100 µM
same,TGI,SK-OV-3 ovarian,> 100 µM
same,TGI,HOP-62 NSCLC,> 100 µM
same,TGI,HS 578T breast,> 100 µM
same,TGI,BT-549 breast,> 100 µM
same,TGI,SN12C renal,> 100 µM
same,TGI,SK-MEL-2 melanoma,> 100 µM
same,TGI,KM12 colon,> 100 µM
same,TGI,SR leukemia,> 100 µM
same,TGI,T-47D breast,> 100 µM
same,TGI,HCT-116 colon,> 100 µM
same,TGI,MDA-MB-231 breast,> 100 µM
same,TGI,HL-60(TB) leukemia,> 100 µM
same,TGI,ACHN renal,> 100 µM
same,TGI,SF-539 CNS,> 100 µM
same,TGI,UO-31 renal,> 100 µM
same,TGI,PC-3 prostate,> 100 µM
same,TGI,HCT-15 colon,> 100 µM
same,TGI,NCI-H226 lung,> 100 µM
same,TGI,SF-295 CNS,> 100 µM
same,TGI,RPMI-8226 leukemia,> 100 µM
same,TGI,HT29 colon,> 100 µM
